According to patent US11214803B2, “Modulators of YAP1 expression” (Ionis Pharmaceuticals, Inc., priority 2019, dated 2022):
Strand notation (5' to 3'): a small letter for the sugar, then the base; units joined by * are phosphorothioate-linked, units joined directly phosphodiester-linked; [ ] holds rarer units or linkages, { } end groups; capitals alone tell only the bases. k = constrained ethyl (cEt); [5mC] = 5-methylcytosine; d = 2'-deoxy (DNA)

Columns and labels:
Yap1 mRNA [1] = assay: Antisense inhibition of human Yap1 in A-431 cells by cEt gapmers, single dose (Example 4, RTS4814); assay type: cell-based
Protocol: Modified oligonucleotides were designed to target a Yap1 nucleic acid and were tested for their effect on Yap1 mRNA level in vitro. The modified oligonucleotides were tested in a series of experiments that had similar culture conditions. Cultured A-431 cells at a density of 5,000 cells per well were treated using free uptake with 2,000 nM of modified oligonucleotide. After a treatment period of approximately 48 hours, RNA was isolated from the cells and Yap1 mRNA levels were measured by quantitative real-time RTPCR. Human primer probe set RTS4814 was used to measure mRNA levels. Yap1 mRNA levels were normalized to total RNA content, as measured by RIBOGREEN®. Results are presented in the tables below as percent control of the amount of Yap1 mRNA relative to untreated control cells (% UTC). The modified oligonucleotides with percent control values marked with an asterisk (*) target the amplicon region of the primer probe set. Additional assays may be used to measure the potency and efficacy of the modified oligonucleotides targeting the amplicon region.
The newly designed modified oligonucleotides in the Tables below were designed as 3-10-3 cEt gapmers. The gapmers are 16 nucleosides in length, wherein the central gap segment comprises of ten 2′-deoxynucleosides and is flanked by wing segments on the 5′ direction and the 3′ direction comprising three nucleosides each. Each nucleoside in the 5′ wing segment and each nucleoside in the 3′ wing segment has a cEt sugar modification. The internucleoside linkages throughout each gapmer are phosphorothioate (P═S) linkages. All cytosine residues throughout each gapmer are 5-methylcytosines.
“Start site” indicates the 5′-most nucleoside to which the gapmer is targeted in the human gene sequence. “Stop site” indicates the 3′-most nucleoside to which the gapmer is targeted human gene sequence. […] Activity of the modified oligonucleotide may be defined in a different experiment.

Yap1 mRNA [2] = assay: Dose-dependent inhibition of human Yap1 in A-431 cells (Example 7, 10,000 cells per well, RTS36584); assay type: cell-based; conditions: free uptake
Outline: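 A-431 cells at 10,000 per well received modified oligonucleotides by free uptake at several doses. After about 48 hours, Yap1 mRNA was quantified with primer-probe set RTS36584, normalized to RIBOGREEN total RNA and expressed as % untreated control. IC50 came from linear regression on a log/linear plot.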

[3] = 15.6 nM, A-431 cells, 10,000 cells per well, approximately 48 hours
[4] = 62.5 nM, A-431 cells, 10,000 cells per well, approximately 48 hours
[5] = 4000.00 nM, A-431 cells, 10,000 cells per well, approximately 48 hours
[6] = A-431 cells, approximately 48 hours, linear regression on log/linear plot
[7] = Table 56, 15.6 nM, A-431 cells 10,000 cells per well, 48 hours
[8] = Table 56, 62.5 nM, A-431 cells 10,000 cells per well, 48 hours
[9] = Table 56, 4000.00 nM, A-431 cells 10,000 cells per well, 48 hours
[10] = Table 56, A-431 cells 10,000 cells per well

Substance: 1075319 (antisense kT*kA*kT*dA*dA*d[5mC]*dA*dA*dT*d[5mC]*dA*dT*d[5mC]*k[5mC]*kT*kA) [compound 1075319]
- YAP1 (% UTC) (Yap1 mRNA [1]; Yap1 mRNA remaining as percent of untreated control, 3-10-3 cEt gapmers, A-431 cells, Table 37): 59 % UTC

Substance: 1075264 (antisense kG*kA*kA*dT*dA*dA*dT*dA*dT*dG*d[5mC]*dA*dG*kA*kA*k[5mC]) [Compound 1075264]
- YAP1 (% UTC) (Yap1 mRNA [1]; Table 14, A-431 cells, 5,000 cells per well, free uptake, 2,000 nM, approximately 48 hours, RTS4814, normalized to RIBOGREEN, Yap1 mRNA relative to untreated control, * = targets amplicon region of primer probe set): 53 % UTC

Substance: 1074499 (kT*kA*k[5mC]*dA*dA*dT*dA*dA*d[5mC]*d[5mC]*dA*dT*d[5mC]*k[5mC]*k[5mC]*kA; antisense) [Compound 1074499]
- YAP1 (% UTC) (Yap1 mRNA [1]; Table 17, A-431 cells, 5,000 cells per well, free uptake, 2,000 nM, approximately 48 hours, RTS4814, normalized to RIBOGREEN, Yap1 mRNA relative to untreated control cells): 10 % UTC

Substance: 1074145 (antisense kA*kA*kG*d[5mC]*dG*dG*d[5mC]*dG*dA*d[5mC]*dG*dG*d[5mC]*kT*kG*k[5mC]) [Compound 1074145]
- YAP1 (% UTC) (Yap1 mRNA [1]; Table 15, A-431 cells, 5,000 cells per well, free uptake, 2,000 nM, approximately 48 hours, RTS4814, normalized to RIBOGREEN, Yap1 mRNA relative to untreated control, * = targets amplicon region of primer probe set): 73 % UTC

Substance: 958579 (kA*kT*k[5mC]*dT*dT*dA*dA*dT*d[5mC]*dT*dG*dT*dG*kG*k[5mC]*kT; antisense) [compound 958579]
- Yap1 mRNA, % UTC (Yap1 mRNA [2]; Table 61, 15.6 nM, A-431 cells 10,000 cells per well, 48 hours): 85 % UTC
- Yap1 mRNA, % UTC (Yap1 mRNA [2]; Table 61, 62.5 nM, A-431 cells 10,000 cells per well, 48 hours): 52 % UTC
- Yap1 mRNA, % UTC (Yap1 mRNA [2]; Table 61, 4000.00 nM, A-431 cells 10,000 cells per well, 48 hours): 12 % UTC
- IC50 (Yap1 mRNA [2]; Table 61, A-431 cells 10,000 cells per well): 100 nM

Substance: 958525 (kA*kT*kG*dA*dA*dG*dG*dT*dA*dA*dA*d[5mC]*d[5mC]*kA*k[5mC]*kT; antisense) [compound 958525]
- Yap1 mRNA, % UTC (Yap1 mRNA [2]; [3]): 94 % UTC
- Yap1 mRNA, % UTC (Yap1 mRNA [2]; [4]): 57 % UTC
- Yap1 mRNA, % UTC (Yap1 mRNA [2]; [5]): 8 % UTC
- IC50 (Yap1 mRNA [2]; [6]): 100 nM

Substance: 958572 (kA*kT*kT*dA*dT*dA*dG*dG*d[5mC]*dA*d[5mC]*dT*d[5mC]*k[5mC]*kT*kT; antisense) [compound 958572]
- Yap1 mRNA, % UTC (Yap1 mRNA [2]; Table 59, 15.6 nM, A-431 cells 10,000 cells per well, 48 hours): 83 % UTC
- Yap1 mRNA, % UTC (Yap1 mRNA [2]; Table 59, 62.5 nM, A-431 cells 10,000 cells per well, 48 hours): 77 % UTC
- Yap1 mRNA, % UTC (Yap1 mRNA [2]; Table 59, 4000.00 nM, A-431 cells 10,000 cells per well, 48 hours): 22 % UTC
- IC50 (Yap1 mRNA [2]; Table 59, A-431 cells 10,000 cells per well): 200 nM

Substance: 958734 (kA*k[5mC]*kA*d[5mC]*dA*dT*dA*dG*dA*dG*d[5mC]*dT*dA*kA*kG*kG; antisense) [compound 958734]
- Yap1 mRNA, % UTC (Yap1 mRNA [2]; [3]): 87 % UTC
- Yap1 mRNA, % UTC (Yap1 mRNA [2]; [4]): 65 % UTC
- Yap1 mRNA, % UTC (Yap1 mRNA [2]; [5]): 15 % UTC
- IC50 (Yap1 mRNA [2]; [6]): 100 nM

Substance: 958558 (kT*kT*k[5mC]*dA*d[5mC]*dA*dA*d[5mC]*d[5mC]*dA*dA*d[5mC]*dT*kA*kT*kT; antisense) [compound 958558]
- Yap1 mRNA, % UTC (Yap1 mRNA [2]; Table 60, 15.6 nM, A-431 cells 10,000 cells per well, 48 hours): 84 % UTC
- Yap1 mRNA, % UTC (Yap1 mRNA [2]; Table 60, 62.5 nM, A-431 cells 10,000 cells per well, 48 hours): 83 % UTC
- Yap1 mRNA, % UTC (Yap1 mRNA [2]; Table 60, 4000.00 nM, A-431 cells 10,000 cells per well, 48 hours): 35 % UTC
- IC50 (Yap1 mRNA [2]; Table 60, A-431 cells 10,000 cells per well): 500 nM

Substance: 958481 (kG*k[5mC]*kA*dA*d[5mC]*dT*dG*dG*d[5mC]*dT*dT*dA*dT*kG*kG*kA; antisense) [compound 958481]
- Yap1 mRNA, % UTC (Yap1 mRNA [2]; Table 57, 15.6 nM, A-431 cells 10,000 cells per well, 48 hours): 86 % UTC
- Yap1 mRNA, % UTC (Yap1 mRNA [2]; Table 57, 62.5 nM, A-431 cells 10,000 cells per well, 48 hours): 62 % UTC
- Yap1 mRNA, % UTC (Yap1 mRNA [2]; Table 57, 4000.00 nM, A-431 cells 10,000 cells per well, 48 hours): 14 % UTC
- IC50 (Yap1 mRNA [2]; Table 57, A-431 cells 10,000 cells per well): 100 nM

Substance: 958373 (antisense kA*kG*kG*dT*dG*d[5mC]*dT*dA*dG*d[5mC]*dT*dG*dG*kT*kG*k[5mC]) [compound 958373]
- Yap1 mRNA, % UTC (Yap1 mRNA [2]; [7]): 72 % UTC
- Yap1 mRNA, % UTC (Yap1 mRNA [2]; [8]): 45 % UTC
- Yap1 mRNA, % UTC (Yap1 mRNA [2]; [9]): 17 % UTC
- IC50 (Yap1 mRNA [2]; [10]): 50 nM

Substance: 958403 (antisense k[5mC]*kA*kG*dT*dT*dT*dA*dT*dG*dT*dA*dG*dT*kA*kG*kT) [compound 958403]
- Yap1 mRNA, % UTC (Yap1 mRNA [2]; [7]): 94 % UTC
- Yap1 mRNA, % UTC (Yap1 mRNA [2]; [8]): 63 % UTC
- Yap1 mRNA, % UTC (Yap1 mRNA [2]; [9]): 12 % UTC
- IC50 (Yap1 mRNA [2]; [10]): 120 nM
